In ChEMBL document CHEMBL3603764, “Structure-activity relationship of N-benzenesulfonyl matrinic acid derivatives as a novel class of coxsackievirus B3 inhibitors” (Bioorg Med Chem Lett, 2015):

Assays:
[1] = Cytotoxicity against African green monkey Vero cells assessed as growth inhibition after 48 hrs; type: cell-based; details: chlorocebus sabaeus, read-out: TC50
Coxsackievirus B3 = assay: Antivirus activity against Coxsackievirus B3 infected in African green monkey vero cells assessed as inhibition of virus-induced cytopathic effect; type: functional, organism-based; details: Enterovirus B
[2] = Selectivity index, ratio of TC50 for African green monkey vero cells to IC50 for Coxsackievirus B3; type: toxicity, cell-based; details: read-out: Selectivity Index

SMILES	IC50 (Coxsackievirus B3)	CC50 at 48 h [1]	selectivity ratio [2]
N#Cc1ccc(S(=O)(=O)N2C[C@@H]3CCCN4CCC[C@@H]([C@H]34)[C@H]2CCCCN2CCOCC2)cc1	> 22.2 µM	96.2 µM	–
CN(C)C(=O)CCC[C@@H]1[C@H]2CCCN3CCC[C@@H](CN1S(=O)(=O)c1cccc(C(F)(F)F)c1)[C@@H]23	2.49 µM	168 µM	67.2
COC(=O)CCC[C@@H]1[C@H]2CCCN3CCC[C@@H](CN1S(=O)(=O)c1ccc(OC(F)(F)F)cc1)[C@@H]23	14.7 µM	191 µM	13
COCCCC[C@@H]1[C@H]2CCCN3CCC[C@@H](CN1S(=O)(=O)c1cccc(C(F)(F)F)c1)[C@@H]23	1.31 µM	75.4 µM	57.4
O=C(CCC[C@@H]1[C@H]2CCCN3CCC[C@@H](CN1S(=O)(=O)c1ccc(OC(F)(F)F)cc1)[C@@H]23)N1CCOCC1	7.19 µM	162 µM	22.5
CN1CCN(CCCC[C@@H]2[C@H]3CCCN4CCC[C@@H](CN2S(=O)(=O)c2ccc(C#N)cc2)[C@@H]34)CC1	> 22.2 µM	–	–
COC(=O)c1ccc(S(=O)(=O)N2C[C@@H]3CCCN4CCC[C@@H]([C@H]34)[C@H]2CCCCN2CCN(C)CC2)cc1	> 22.2 µM	–	–
CC(=O)c1ccc(S(=O)(=O)N2C[C@@H]3CCCN4CCC[C@@H]([C@H]34)[C@H]2CCCC(=O)N2CCC2)cc1	> 127 µM	> 382 µM	–
O=C(CCC[C@@H]1[C@H]2CCCN3CCC[C@@H](CN1S(=O)(=O)c1cccc(C(F)(F)F)c1)[C@@H]23)N1CCOCC1	3.95 µM	156 µM	38.9
O=C(CCC[C@@H]1[C@H]2CCCN3CCC[C@@H](CN1S(=O)(=O)c1ccc(OC(F)(F)F)cc1)[C@@H]23)N1CCC1	5.58 µM	170 µM	21.2
CC(=O)c1ccc(S(=O)(=O)N2C[C@@H]3CCCN4CCC[C@@H]([C@H]34)[C@H]2CCCC(=O)O)cc1	> 138 µM	> 413 µM	–
CN(C)C(=O)CCC[C@@H]1[C@H]2CCCN3CCC[C@@H](CN1S(=O)(=O)c1ccc(OC(F)(F)F)cc1)[C@@H]23	2.74 µM	174 µM	63.3
COC(=O)CCC[C@@H]1[C@H]2CCCN3CCC[C@@H](CN1S(=O)(=O)c1ccc(C(C)=O)cc1)[C@@H]23	8.58 µM	193 µM	22.5
CC(O)c1ccc(S(=O)(=O)N2C[C@@H]3CCCN4CCC[C@@H]([C@H]34)[C@H]2CCCCO)cc1 (some centres undefined)	> 142 µM	> 425 µM	–
CN(C)CCCC[C@@H]1[C@H]2CCCN3CCC[C@@H](CN1S(=O)(=O)c1ccc(C#N)cc1)[C@@H]23	> 22.2 µM	96.2 µM	–
CC(=O)c1ccc(S(=O)(=O)N2C[C@@H]3CCCN4CCC[C@@H]([C@H]34)[C@H]2CCCC(=O)N(C)C)cc1	> 130 µM	> 391 µM	–
CNC(=O)CCC[C@@H]1[C@H]2CCCN3CCC[C@@H](CN1S(=O)(=O)c1cccc(C(F)(F)F)c1)[C@@H]23	2.56 µM	172 µM	67.2

The next lines start with results.

IC50 (Coxsackievirus B3)	SMILES	CC50 at 48 h [1]	selectivity ratio [2]
> 22.2 µM	CC(=O)c1ccc(S(=O)(=O)N2C[C@@H]3CCCN4CCC[C@@H]([C@H]34)[C@H]2CCCCN(C)C)cc1	–	–
10 µM	O=S(=O)(c1ccc(OC(F)(F)F)cc1)N1C[C@@H]2CCCN3CCC[C@@H]([C@H]23)[C@H]1CCCCO	101 µM	10.1
> 118 µM	CC(=O)c1ccc(S(=O)(=O)N2C[C@@H]3CCCN4CCC[C@@H]([C@H]34)[C@H]2CCCC(=O)N2CCOCC2)cc1	> 361 µM	–
4.33 µM	NC(=O)CCC[C@@H]1[C@H]2CCCN3CCC[C@@H](CN1S(=O)(=O)c1cccc(C(F)(F)F)c1)[C@@H]23	177 µM	40.8
> 22.2 µM	CN1CCN(CCCC[C@@H]2[C@H]3CCCN4CCC[C@@H](CN2S(=O)(=O)c2cccc(C#N)c2)[C@@H]34)CC1	116 µM	–
8.41 µM	COCCCC[C@@H]1[C@H]2CCCN3CCC[C@@H](CN1S(=O)(=O)c1cccc(C#N)c1)[C@@H]23	332 µM	39.5
> 127 µM	O=C(O)CCC[C@@H]1[C@H]2CCCN3CCC[C@@H](CN1S(=O)(=O)c1ccc(OC(F)(F)F)cc1)[C@@H]23	> 380 µM	–
> 7.4 µM	CN1CCN(CCCC[C@@H]2[C@H]3CCCN4CCC[C@@H](CN2S(=O)(=O)c2cccc(C(F)(F)F)c2)[C@@H]34)CC1	51.5 µM	–
> 39.3 µM	COC(=O)CCC[C@@H]1[C@H]2CCCN3CCC[C@@H](CN1S(=O)(=O)c1ccc(/C(C)=N/O)cc1)[C@@H]23	53.9 µM	–
> 22.2 µM	CC(=O)c1ccc(S(=O)(=O)N2C[C@@H]3CCCN4CCC[C@@H]([C@H]34)[C@H]2CCCCN2CCN(C)CC2)cc1	–	–
> 22.2 µM	CN1CCN(CCCC[C@@H]2[C@H]3CCCN4CCC[C@@H](CN2S(=O)(=O)c2ccc(S(C)(=O)=O)cc2)[C@@H]34)CC1	–	–
> 22.2 µM	CC(=O)c1ccc(S(=O)(=O)N2C[C@@H]3CCCN4CCC[C@@H]([C@H]34)[C@H]2CCCCN2CCOCC2)cc1	–	–
